The values that follow come from US10238667B2, “Vitamin D receptor/SMAD genomic circuit gates fibrotic response” (Salk Institute for Biological Studies, priority 2013, dated 2019).

Assay [1] relates to SMAD3. Kind of assay: ChIP-Seq signal intensity at VDR/SMAD3 co-occupied sites in LX-2 cells (SMAD3). The following applies: TGFβ1 1 ng/ml ± calcipotriol 100 nM, 4 hours. It is filed as cell-based, human. From the text: FIGS. 10A-10G. Genomic Antagonism between VDR and SMAD. […] The three co-occupied sites are designated as 1, 2 and 3. (D) and (F) ChIP-qPCR at COL1A1 regulatory region #1 co-bound by VDR and SMAD3 in LX-2 cells treated as above. (E) and (G) ChIP-qPCR at COL1A1 regulatory region #1 of control (siCNTL), VDR-specific (siVDR), or SMAD3-specific (siSMAD3) siRNA transfected LX-2 cells treated as above. Occupancy is expressed relative to input chromatin. Data represents the mean±SEM of at least three independent experiments performed in triplicate. Asterisks denote statistically significant differences (Student's t-test, *p<0.05, **p<0.01).
Cells were then harvested for ChIP assay. The experimental procedure for ChIP was as previously described (Barish et al., 2010). […]
The procedure was as previously described (Barish et al., 2010). Briefly, short DNA reads were aligned against the human hg18 reference genome (NCBI Build 36.1) using the Illumina Pipeline Suite v1.7. Reads were aligned using the Bowtie aligner allowing up to 2 mismatches in the read. […] The threshold for the number of tags that determine a valid peak was selected for a false discovery rate of <0.0001, as empirically determined by repeating the peak finding procedure using randomized tag positions. […]

In assay [2] the test system is NCoR, SMRT, HDAC3, CoREST, LSD1, and G9a. The assay is described as follows: ChIP-qPCR of corepressor recruitment at COL1A1 and COL1A2 regulatory regions in LX-2 cells. It counts as cell-based, human. The following applies: calcipotriol 100 nM and TGFβ1 1 ng/ml. From the text: FIGS. 12A-12B. Coactivator/Corepressor Recruitment and Histone H3 Acetylation Status at Regulatory Regions of Fibrotic Genes Co-occupied by VDR and SMAD. […] The level of occupancy is expressed relative to input chromatin in LX-2 cells treated with corresponding conditions. Data represents the mean+/−SEM of at least three independent experiments performed in triplicate. Asterisks denote statistically significant differences (Student's t test, *p<0.05). […] The level of occupancy is expressed relative to input chromatin in LX-2 cells treated with corresponding conditions.
Cells were then harvested for ChIP assay. The experimental procedure for ChIP was as previously described (Barish et al., 2010). Briefly, after fixation, nuclei from LX-2 cells were isolated, lysed and sheared with a Diagenode Bioruptor to yield DNA fragment sizes of 200-1000 base pairs followed by immunoprecipitation using antibodies listed below: normal rabbit IgG (Santa Cruz, sc-2027), VDR (Santa Cruz, sc-1008), SMAD3 (Abcam, ab28379) and histone H3 (Abcam, ab1791). For ChIP-Re-ChIP, after first ChIP, the immunoprecipitated DNA-protein complex was eluted from beads using 10 mM DTT, diluted 100-fold then re-immunoprecipitated with a second antibody, re-ChIP.

In the case of `C=C1/C(=C\C=C2/CCC[C@]3(C)[C@@H]([C@H](C)/C=C/[C@@H](O)C4CC4)CC[C@@H]23)C[C@@H](O)C[C@@H]1O` [calcipotriol, 1α,24-(OH)2-24-cyclopropyl-D3], the “TGFβ-induced recruitment of SMAD3 globally compromised” value in assay [1] is on record as around 1.5 fold. Besides, the “altered binding of corepressors to VDR/SMAD3 co-occupied regulatory regions” value in assay [2] is “not detected”.
